These results are taken from patent US11613527B2, “Enzyme inhibitors” (KalVista Pharmaceuticals Limited, priority 2019, dated 2023).

For one series, the target named is Human KLK1 (Homo sapiens (Human), UniProt P06870). Briefly: Determination of the IC50 for KLK1 (fluorogenic substrate H-DVal-Leu-Arg-AFC). Type of series: biochemical. The method in brief:
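Human KLK1 incubated at 25° C. with fluorogenic substrate H-DVal-Leu-Arg-AFC and a range of test compound concentrations. Residual activity taken as initial reaction rate from absorbance change at 410 nm; IC50 derived from these rates.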

For a further series, the target named is Human plasma kallikrein (Homo sapiens (Human), UniProt P03952). Briefly: Determination of the IC50 for plasma kallikrein (fluorogenic substrate H-DPro-Phe-Arg-AFC). Conditions: class symbols A-D, read-out: IC50 (human PKal). Type of series: biochemical. The method in brief: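 Enzyme from a commercial source was incubated at 25° C. with H-DPro-Phe-Arg-AFC substrate and a range of test compound concentrations. Residual activity was taken as the initial reaction rate, followed by absorbance change at 410 nm, and IC50 values were derived from it.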
Sequence of Human plasma kallikrein (P03952 391-638): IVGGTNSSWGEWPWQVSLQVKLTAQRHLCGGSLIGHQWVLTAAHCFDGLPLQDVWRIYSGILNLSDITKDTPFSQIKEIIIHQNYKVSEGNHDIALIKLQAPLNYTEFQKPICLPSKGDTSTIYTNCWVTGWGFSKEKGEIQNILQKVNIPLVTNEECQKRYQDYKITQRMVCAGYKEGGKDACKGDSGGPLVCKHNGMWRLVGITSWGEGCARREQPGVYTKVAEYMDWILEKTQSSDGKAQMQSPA
Sequence of Human plasma kallikrein (P03952 20-390 partner): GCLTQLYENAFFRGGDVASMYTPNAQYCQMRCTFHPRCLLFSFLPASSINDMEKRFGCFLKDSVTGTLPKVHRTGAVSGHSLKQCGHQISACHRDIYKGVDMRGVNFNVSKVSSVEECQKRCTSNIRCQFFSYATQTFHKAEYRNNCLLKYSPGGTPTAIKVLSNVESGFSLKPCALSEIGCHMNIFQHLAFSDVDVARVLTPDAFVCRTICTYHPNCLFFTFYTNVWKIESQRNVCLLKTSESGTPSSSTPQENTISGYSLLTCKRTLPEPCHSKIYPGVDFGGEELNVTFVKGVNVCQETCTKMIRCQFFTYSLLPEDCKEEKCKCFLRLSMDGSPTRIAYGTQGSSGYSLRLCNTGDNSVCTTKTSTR

Series [1] can be described thus: Solubility after 24 hrs in Fasted State Simulated Intestinal Fluid (FaSSIF). The following applies: 24 hrs at 37° C., nominal concentration 1 mg/mL (as free base); for solubility at 24 h: Fasted State Simulated Intestinal Fluid (FaSSIF), thermodynamic from solid. The series is classed as physicochemical. How it is done:
Selected compounds were further screened for solubility in Fasted State Simulated Intestinal Fluid (FaSSIF).
Approximately 1 mg of test compound is accurately weighed into a 2 mL vial. Volumes of the FaSSIF solution (pre-heated to 37° C.) were added to a vial to give a nominal concentration of 1 mg/mL (as free base). The FaSSIF solution was prepared on the day of use. The samples were vortexed before being placed in a Titramax 1000 shaker for 24 hrs at 37° C. and approximately 500 rpm. The samples were transferred to eppendorf tubes and centrifuged at 15,000 g (r.c.f.) for 10 min at 37° C. and analysed for concentration of test compound by LCMS.

A further series has as its target Human FXIa (Homo sapiens (Human), UniProt P03951). Put plainly: Determination of the % inhibition for FXIa (fluorogenic substrate Z-Gly-Pro-Arg-AFC; 40 μM or IC50). The series is classed as biochemical. The method in brief: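 Human FXIa incubated at 25 °C with fluorogenic substrate Z-Gly-Pro-Arg-AFC and test compound at 40 μM for % inhibition, or a concentration series for IC50. Residual activity taken as initial rate from absorbance change at 410 nm.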

pIC50: −log10 of the molar value. Converted amounts (≈) assume the structure as drawn.

Sequence of Human KLK1 (P06870 25-262): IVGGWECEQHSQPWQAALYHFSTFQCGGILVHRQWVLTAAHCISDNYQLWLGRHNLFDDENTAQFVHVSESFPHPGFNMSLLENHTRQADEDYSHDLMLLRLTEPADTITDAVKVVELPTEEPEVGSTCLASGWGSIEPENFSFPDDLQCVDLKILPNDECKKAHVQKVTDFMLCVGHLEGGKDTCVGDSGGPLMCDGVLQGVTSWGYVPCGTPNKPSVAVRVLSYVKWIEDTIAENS
Sequence of Human FXIa (P03951 388-625): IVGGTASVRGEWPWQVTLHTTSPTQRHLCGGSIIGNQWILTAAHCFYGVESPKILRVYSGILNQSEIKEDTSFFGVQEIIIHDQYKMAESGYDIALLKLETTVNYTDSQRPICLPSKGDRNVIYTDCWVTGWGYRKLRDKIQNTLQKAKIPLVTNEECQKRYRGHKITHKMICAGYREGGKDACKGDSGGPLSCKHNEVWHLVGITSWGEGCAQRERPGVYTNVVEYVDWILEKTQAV
Sequence of Human FXIa (P03951 19-387 partner): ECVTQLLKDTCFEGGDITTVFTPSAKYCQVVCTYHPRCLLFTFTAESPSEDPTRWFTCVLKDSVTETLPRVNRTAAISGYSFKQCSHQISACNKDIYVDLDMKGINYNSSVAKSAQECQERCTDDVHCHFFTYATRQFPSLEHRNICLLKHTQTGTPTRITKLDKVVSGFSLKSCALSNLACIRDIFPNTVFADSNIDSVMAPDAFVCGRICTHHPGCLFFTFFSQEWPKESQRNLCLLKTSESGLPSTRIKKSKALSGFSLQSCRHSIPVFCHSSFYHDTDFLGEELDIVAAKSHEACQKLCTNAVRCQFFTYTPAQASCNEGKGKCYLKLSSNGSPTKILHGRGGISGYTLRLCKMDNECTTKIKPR

Take `COCc1nn(Cc2ccc3c(c2)CN(C)CC3)cc1C(=O)NCc1c(-n2cnc(C)n2)ccc(OC)c1F` [Example 4, N-{[2-fluoro-3-methoxy-6-(3-methyl-1,2,4-triazol-1-yl)phenyl]methyl}-3-(methoxymethyl)-1-[(2-methyl-3,4-dihydro-1H-isoquinolin-7-yl)methyl]pyrazole-4-carboxamide]: the pIC50 was below 4.40 against Human KLK1, above 8.00 at Human plasma kallikrein and 5.99 on Human FXIa. This compound also registered a solubility at 24 h in series [1] above 1000 µg/mL.
`COCc1nn(Cc2ccc3c(c2)CN(C)CC3)cc1C(=O)NCc1c(-n2ccc(C#N)n2)ccc(OC)c1F` [Example 11, N-{[6-(3-cyanopyrazol-1-yl)-2-fluoro-3-methoxyphenyl]methyl}-3-(methoxymethyl)-1-[(2-methyl-3,4-dihydro-1H-isoquinolin-7-yl)methyl]pyrazole-4-carboxamide]: the negative-log IC50 (pIC50) against Human KLK1 was below 4.40; at Human plasma kallikrein it was above 8.00; against Human FXIa, 4.72. The compound further showed a solubility at 24 h in series [1] of 730 µg/mL (≈ 1340 µM).
As for `COCc1nn(Cc2ccc3c(c2)CN(C(C)C)CC3)cc1C(=O)NCc1c(-n2cnc(C(F)(F)F)n2)ccc(OC)c1F` [Example 22, N-({2-fluoro-3-methoxy-6-[3-(trifluoromethyl)-1,2,4-triazol-1-yl]phenyl}methyl)-1-[(2-isopropyl-3,4-dihydro-1H-isoquinolin-7-yl)methyl]-3-(methoxymethyl)pyrazole-4-carboxamide], the values for the pIC50 at Human KLK1, on Human plasma kallikrein and on Human FXIa were below 4.40, above 8.00 and below 4.40, respectively. In series [1], the solubility at 24 h was 760 µg/mL (≈ 1230 µM).
For `CCN1CCc2ccc(Cn3cc(C(=O)NCc4c(-n5cnc(C(F)(F)F)n5)ccc(OC)c4F)c(COC)n3)cc2C1` [Example 25, 1-[(2-ethyl-3,4-dihydro-1H-isoquinolin-7-yl)methyl]-N-({2-fluoro-3-methoxy-6-[3-(trifluoromethyl)-1,2,4-triazol-1-yl]phenyl}methyl)-3-(methoxymethyl)pyrazole-4-carboxamide], the negative-log IC50 (pIC50) against Human KLK1 is below 4.40; on Human plasma kallikrein, above 8.00; against Human FXIa, below 4.40. Also, the solubility at 24 h in series [1] is 1000 µg/mL (≈ 1660 µM).
For the compound `[2H]C([2H])([2H])N1CCc2ccc(Cn3cc(C(=O)NCc4c(-n5cc(C)nn5)ccc(OC)c4F)c(COC)n3)cc2C1` [Example 119, N-{[2-fluoro-3-methoxy-6-(4-methyl-1,2,3-triazol-1-yl)phenyl]methyl}-3-(methoxymethyl)-1-{[2-(^2H3)methyl-3,4-dihydro-1H-isoquinolin-7-yl]methyl}pyrazole-4-carboxamide], the “FASSIF Solubility 24 hrs” value in series [1] was 960 µg/mL.
On to `COCc1nn(Cc2cnc3c(c2)CN(C(C)C)CC3)cc1C(=O)NCc1c(-n2cc(C)nn2)ccc(OC)c1F` [Example 132, N-{[2-fluoro-3-methoxy-6-(4-methyl-1H-1,2,3-triazol-1-yl)phenyl]methyl}-3-(methoxymethyl)-1-{[6-(propan-2-yl)-5,6,7,8-tetrahydro-1,6-naphthyridin-3-yl]methyl}-1H-pyrazole-4-carboxamide], for which the pIC50 on Human plasma kallikrein is 7.52 to 8.00. In addition, the concentration in solution in series [1] (solubility at 24 h) was 560 µg/mL (≈ 995 µM).
Consider `COc1ccc(-n2cc(C)nn2)c(CNC(=O)c2cn(Cc3ccc4c(c3)CN(C(C)C)C4)c(C3CC3)n2)c1F` [Example 150, 2-cyclopropyl-N-{[2-fluoro-3-methoxy-6-(4-methyl-1,2,3-triazol-1-yl)phenyl]methyl}-1-[(2-isopropyl-1,3-dihydroisoindol-5-yl)methyl]imidazole-4-carboxamide], for which the pIC50 on Human KLK1 is below 4.40; at Human plasma kallikrein, 7.52 to 8.00; against Human FXIa, below 4.40.
As to `COCc1nn(Cc2ccc3c(c2)CN(C)CC3)cc1C(=O)NCc1c(-n2cnc(C(F)F)n2)ccc(Cl)c1F` [Example 155, N-({3-chloro-6-[3-(difluoromethyl)-1,2,4-triazol-1-yl]-2-fluorophenyl}methyl)-3-(methoxymethyl)-1-[(2-methyl-3,4-dihydro-1H-isoquinolin-7-yl)methyl]pyrazole-4-carboxamide], the pIC50 was below 4.40 at Human KLK1, 6.00 to 7.00 on Human plasma kallikrein and below 4.40 on Human FXIa.
For the compound `COCc1nn(Cc2ccc3c(c2)CN(C)CC3)cc1C(=O)NCc1c(-n2cnc(C(F)F)n2)ccc(C(C)(F)F)c1F` [Example 157, N-{[3-(1,1-difluoroethyl)-6-[3-(difluoromethyl)-1,2,4-triazol-1-yl]-2-fluorophenyl]methyl}-3-(methoxymethyl)-1-[(2-methyl-3,4-dihydro-1H-isoquinolin-7-yl)methyl]pyrazole-4-carboxamide], the negative logarithm of the IC50 (pIC50) at Human KLK1 was below 4.40; on Human plasma kallikrein, 6.00 to 7.00; on Human FXIa, below 4.40.
On to `COCc1nn(Cc2ccc3c(c2)CCN(C)CC3)cc1C(=O)NCc1c(-n2cnc(C(F)(F)F)n2)ccc(OC)c1F` [Example 158, N-({2-fluoro-3-methoxy-6-[3-(trifluoromethyl)-1,2,4-triazol-1-yl]phenyl}methyl)-3-(methoxymethyl)-1-[(3-methyl-1,2,4,5-tetrahydro-3-benzazepin-7-yl)methyl]pyrazole-4-carboxamide], for which the negative logarithm of the IC50 (pIC50) was below 4.40 at Human KLK1, above 8.00 on Human plasma kallikrein and below 4.40 against Human FXIa.
With `COc1ccc(-n2cc(C)nn2)c(CNC(=O)c2ccn(Cc3ccc4c(c3)CN(C)CC4)c(=O)c2)c1F` [Example 159, N-{[2-fluoro-3-methoxy-6-(4-methyl-1,2,3-triazol-1-yl)phenyl]methyl}-1-[(2-methyl-3,4-dihydro-1H-isoquinolin-7-yl)methyl]-2-oxopyridine-4-carboxamide], the pIC50 against Human KLK1 was below 4.40; on Human plasma kallikrein, 6.00 to 7.00; at Human FXIa, below 4.40.
For `COCc1nn(Cc2ccc3ccncc3c2)cc1C(=O)NCc1c(-n2cc(C)nn2)ccc(OC)c1F` [RC1, N-{[2-fluoro-3-methoxy-6-(4-methyl-1,2,3-triazol-1-yl)phenyl]methyl}-1-(isoquinolin-7-ylmethyl)-3-(methoxymethyl)pyrazole-4-carboxamide, reference compound], on Human plasma kallikrein, the pIC50 was 6.00 to 7.00. The compound also came in with a solubility at 24 h in series [1] of 40 µg/mL (≈ 77.6 µM).
Turning to `COCc1nn(Cc2cnc(N3CCCC3)nc2)cc1C(=O)NCc1c(-n2cnnn2)ccc(OC)c1F` [RC4, N-{[2-fluoro-3-methoxy-6-(1,2,3,4-tetrazol-1-yl)phenyl]methyl}-3-(methoxymethyl)-1-{[2-(pyrrolidin-1-yl)pyrimidin-5-yl]methyl}pyrazole-4-carboxamide, reference compound], the figures for the pIC50 at Human KLK1 and on Human plasma kallikrein were below 4.40 and above 8.00, respectively. Further, the solubility at 24 h in series [1] was 170 µg/mL (≈ 325 µM).
Consider `COCc1nn(Cc2cnc(N3CCCC3)nc2)cc1C(=O)NCc1c(-n2ccnn2)ccc(OC)c1F` [RC5, N-{[2-fluoro-3-methoxy-6-(1,2,3-triazol-1-yl)phenyl]methyl}-3-(methoxymethyl)-1-{[2-(pyrrolidin-1-yl)pyrimidin-5-yl]methyl}pyrazole-4-carboxamide, reference compound], for which the solubility at 24 h in series [1] was 20 µg/mL (≈ 38.3 µM).
The same measure, in the same setting: to `COCc1nn(Cc2cnc(N3CCCC3)nc2)cc1C(=O)NCc1c(-n2cc(C)nn2)ccc(OC)c1F` [RC6, N-{[2-fluoro-3-methoxy-6-(4-methyl-1,2,3-triazol-1-yl)phenyl]methyl}-3-(methoxymethyl)-1-{[2-(pyrrolidin-1-yl)pyrimidin-5-yl]methyl}pyrazole-4-carboxamide, reference compound] belongs 100 µg/mL (≈ 187 µM).
